We go through 7 compounds from PMC7203576 (Frontiers in Microbiology, 2020).

“And” between values parts separate entries of the source, which are not always exact repeats. Equal entries are not always repeated. Where two headings read alike, the source gives them in different places. Marks after values point to notes of the source that are not given here. Residues, ends and D or L forms follow the SMILES beside them. *: point of attachment. Tridecanoyl(3R-OH,11-Me) = CCC(C)CCCCCCC[C@@H](O)CC(=O)*

The subject of test [1] is Magnaporthe oryzae Triticum (MoT) conidia. To be noted: 50 μg/ml.
In test [2] the test system is Magnaporthe oryzae Triticum (MoT) isolate BTJP 4 (5).
Test [3] has as its system Magnaporthe oryzae Triticum (MoT) on detached wheat leaves cv. BARI Gom 24 (Prodip). Particulars: in vivo.

For the compound `CCC(C)CCCCCCC[C@@H](O)CC(=O)N[C@@H](CC(C)C)C(=O)N[C@@H](CCC(=O)O)C(=O)N[C@@H](CC(C)C)C(=O)N[C@@H](CC(C)C)C(=O)O` (stereo partly drawn) [Gageopeptide A] ({Tridecanoyl(3R-OH,11-Me)}-LELL-OH), in test [1] (0 h), the “Germinated conidia (% ± SE)” value was 0 ± 0^f % and the “Major morphological change/developmental transitions in the treated conidia” value is “No germination”. The “Major morphological change/developmental transitions in the treated conidia” value in test [1] (6 h) is on record as “Germinated with a short germ tube”. Also, in test [1] (12 h), the “Major morphological change/developmental transitions in the treated conidia” value is recorded as “Normal germ tube”. Besides, in test [1] (24 h), the “Major morphological change/developmental transitions in the treated conidia” value is “Normal appressoria formed; no mycelial growth took place” and the “Inhibition of mycelial growth from germinated conidia” value stood at 100%. The “Conidia with normal germ tube” value in test [1] (after 12 h) came out at 31 ± 1.7%. Moreover, the “Conidia producing normal appressoria” value in test [1] (after 24 h) is recorded as 27 ± 1.5%. Moreover, in test [2], the “Activity against MoT” value is reported as “Active”; the “Minimum inhibitory concentration (MIC) on mycelial growth” value was 10.0 μg/disk and 10 μg/disk; the “Morphology of treated hyphae (microscopy)” value is “remarkable increase in branch frequency per unit length of hyphae, reduced polar growth, and irregular swelling of the hyphal tips”; the “Mycelial growth inhibition at the MIC” value is 12.5 ± 1.8%. Moreover, the “Percent inhibition of radial growth (PIRG) of mycelia” value in test [2] is 50.5 ± 0.9%. The “Average lesion length of wheat blast on detached leaves” value in test [3] was 1.5 ± 0.2 mm.

Take Gageopeptide D: in test [1] (0 h), the “Germinated conidia (% ± SE)” value is 0 ± 0^f % and the “Major morphological change/developmental transitions in the treated conidia” value was “No germination”. The “Major morphological change/developmental transitions in the treated conidia” value in test [1] (6 h) is listed as “Germinated with a short germ tube”. Moreover, in test [1] (12 h), the “Major morphological change/developmental transitions in the treated conidia” value is “Deformed germ tube (swollen)”. Moreover, in test [1] (24 h), the “Major morphological change/developmental transitions in the treated conidia” value is given as “No appressoria formed; no mycelial growth took place”. The “Conidia with abnormally swollen (deformed) germ tubes” value in test [1] (after 12 h) was determined as 25 ± 1.7%. In test [2], the “Activity against MoT” value is recorded as “Active”; the “Minimum inhibitory concentration (MIC) on mycelial growth” value stood at 2.5 μg/disk; the “Morphology of treated hyphae (microscopy)” value was “disruption of normal polar growth of hyphae by inducing excessive branching and swelling of hyphal tips”; the “Mycelial growth inhibition at the MIC” value is recorded as 20 ± 1.7%. Further, the “Percent inhibition of radial growth (PIRG) of mycelia” value in test [2] was 45.7 ± 1.6% and 30.5 ± 0.9% and 27.6 ± 0.9%. Further, in test [3], the “Average lesion length of wheat blast on detached leaves” value was 1.8 ± 0.1 mm.

Take Oligomycin F [reference compound]: in test [2], the “Activity against MoT” value is reported as “Active”.

With `COC1=CC(=O)C(O)=C(CCCCCCC/C=C\CCCCCCCC2=C(O)C(=O)C=C(OC)C2=O)C1=O` [Ardisiaquinone A, reference compound], the “Activity against MoT” value in test [2] was “Inactive”.

Turning to `CC[C@@H](O)C[C@@H]1CC[C@@H](O)[C@@H](C)C(=O)O[C@@H](C)C[C@H]2CC[C@H](O2)[C@H](C)C(=O)O1` [Feigrisolide C, reference compound], in test [2], the “Activity against MoT” value is given as “Active”.

In the case of `CC(=O)c1c(O)cc(O)c(C(C)=O)c1O` [2,4-Diacetylphloroglucinol (DAPG), 2,4-Diacetylphloroglucinol, reference compound], the “Activity against MoT” value in test [2] is recorded as “Inactive”.

As to Gageotetrin A [reference compound], the “Activity against MoT” value in test [2] is “Inactive”.
